Laboratory results taken from patent US10752593B2, “Compounds for use as therapeutically active substances in the treatment of retinal diseases” (ENDOGENA THERAPEUTICS, INC., priority 2018, dated 2020).

tested on: retinal precursor cells; test: Sphere passaging and high-throughput drug screening: proliferation of retinal precursor cells within one week; format: cell-based, mammalian; settings: increase over control; retinal precursor cells
Description: Kynurenic Acid (0.2 mg/mL), trypsin (1.33 mg/mL), and hyaluronidase (0.67 mg/mL) were weighed out and dissolved in high magnesium/low calcium artificial cerebral spinal fluid (aCSF) at 37° C. Fibroblast growth factor 2 (FGF2; 10 ng/mL) and heparin (2 μg/mL) were added to 100 mL of serum-free media (SFM). Ovomucoid trypsin inhibitor (1 mg/mL) was dissolved in warm SFM and sterile filtered ([…]).
A dissecting microscope, cold light source, and sterile surgical instruments were set up inside of a sterile biological safety cabinet (BSC). Mammalian eyes were enucleated and placed in a petri dish containing cold, sterile aCSF. Under the dissecting microscope, hair, connective tissue, and the dorsal and ventral oblique muscles were cleared from the scleral/corneal border with two sets of forceps. Next, curved or angled micro-dissecting scissors were used to cleave any remaining extraocular muscle tissue, the optic nerve, and cut the eyeball into symmetrical halves; beginning and finishing the cut from the hole left by the optic nerve. Using two sets of forceps to grasp the cornea, the two eye halves were peeled apart. The lens, optic nerve, and vitreous were separated from the eye shells and the eye shells were transferred into a new petri dish (also containing cold, sterile aCSF). To isolate the ciliary epithelium (CE), eye shells were oriented with the cornea on the right and retinal pigmented epithelium (RPE) on the left. A pair of straight forceps were used to pin down the eye shell on the RPE side while a scalpel blade was inserted between the CE and the iris, using pressure to slice the iris/cornea side off from the rest of the shell. Next, the scalpel was run along the border between the CE and the RPE to obtain the CE isolated as a thin strip of tissue. The CE strips were then transferred to a 35 mm dish containing 2 mL of dispase solution (Sigma; T1005) and incubated for 10 minutes at 37° C. Next, the strips were transferred from dispase into a 35 mm dish containing 2 mL of sterile filtered kynurenic acid, trypsin and hyaluronidase solution and incubated at 37° C. for 10 minutes. After incubation, the dish was returned to the dissecting scope, and the CE strips were pinned down with straight, non-serrated forceps, while non-serrated curved forceps were used to scrape the CE off from the underlying sclera. The bare scleral strips were then discarded, such that only the CE cells remained in the enzyme solution. Using a fire-polished, cotton-plugged glass pipette, the cells and enzyme solution were transferred to a 15 mL tube and triturated approximately 45 times to break apart the tissue. The 15 mL tube/cell suspension was centrifuged for 5 minutes at 1500 rpm. The supernatant was gently aspirated from the resulting pellet using a fire-polished, cotton-plugged glass pipette and 2 mL of trypsin inhibitor solution was added to the pellet. Using a small borehole, fire-polished, cotton-plugged glass pipette, the sample was triturated approximately 45 times until it was a single-cell suspension. The 15 mL tube/cell suspension was centrifuged for 5 minutes at 1500 rpm. The supernatant was gently aspirated from the resulting pellet and 1-2 mL of SFM with FGF2 and heparin (plating media) was added. The cells and media were mixed to ensure a uniform cell suspension and a 10 uL sample was taken and cell density was determined. The cells were then seeded and cultured at 10c/μL in culture-treated plates or flasks. After one week, roughly 1 in 500 cells proliferated to form free-floating, clonal spheres greater than 80 μm in diameter.
Human-derived spheres were passaged using the kynurenic acid, trypsin, hyaluronidase enzyme solution with the addition of collagenase I (0.5 mg/mL), collagenase II (0.5 mg/mL) and elastase (0.1 mg/mL). Mouse-derived spheres were passaged using hyaluronidase (0.67 mg/mL), collagenase I (0.5 mg/mL), and collagenase II (0.5 mg/mL) dissolved in Accustase solution (Sigma; SCR005). […]

Row | Structure (SMILES) | increase of cell proliferation within one week
1 | COc1cccc(CC(=O)Nc2ccc(-c3ccncc3)c(OC)c2)c1 [Compound E1072, N-(3-methoxy-4-(pyridin-4-yl)phenyl)-2-(3-methoxyphenyl)acetamide] | 40%

same assay, conditions: results table after the methods; retinal precursor cells grown one week with compound in 0.1% DMSO; control without compound = 100

Row | Structure (SMILES) | Cell proliferation within one week [%]
2 | COc1ccccc1CC(=O)Nc1ccc(-c2ccncc2)c(OC)c1 [Compound E1068, N-(3-methoxy-4-(pyridin-4-yl)phenyl)-2-(2-methoxyphenyl)acetamide] | 108%
3 | COc1cc(NC(=O)Cc2ccc(F)cc2F)ccc1-c1ccncc1 [Compound E1069, 2-(2,4-difluorophenyl)-N-(3-methoxy-4-(pyridin-4-yl)phenyl) acetamide] | 106%
4 | COc1cc(NC(=O)Cc2cccc(C(F)(F)F)c2)ccc1-c1ccncc1 [Compound E1070, N-(3-methoxy-4-(pyridin-4-yl)phenyl)-2-(3-(trifluoromethyl)phenyl)acetamide] | 106%
5 | COc1cc(NC(=O)Cc2ccccc2C(F)(F)F)ccc1-c1ccncc1 [Compound E1071, N-(3-methoxy-4-(pyridin-4-yl)phenyl)-2-(2-(trifluoromethyl)phenyl)acetamide] | 113%
6 | COc1cccc(CC(=O)Nc2ccc(-c3ccncc3)c(OC)c2)c1 [Compound E1072, N-(3-methoxy-4-(pyridin-4-yl)phenyl)-2-(3-methoxyphenyl)acetamide] | 140%
7 | COc1cc(NC(=O)Cc2ccccc2OC(F)F)ccc1-c1ccncc1 [Compound E1073] | 121%
8 | COc1cccc(CC(=O)Nc2ccc(-c3ccncc3)cc2)c1 [Compound E1078, 2-(3-methoxyphenyl)-N-(4-(pyridin-4-yl)phenyl)acetamide] | 136%
